Assay results taken from patent publication US10584361B2, “Algae having intracellular lipid particles and high lipid content” (THE UNIVERSITY OF AKRON, priority 2012, dated 2020).
Where two headings read alike, the source gives them in different places.

Experiments:
algae [1] = experiment: Lipid enhancement with glycerol (algae re-suspended in salts solution); type: cell-based; conditions: 0.5, 1 and 5 g/L glycerol (all systems), within 24 h; pH 5; then decreased slightly
Procedure: The specific procedure was: • i. […] Rotate 20 min at 40% output (Glas-Col) • vi. Centrifuge at 3620 g for 5 min • vii.
Algae were first cultured and then collected by centrifuge.
The thin layer chromatography analysis was performed the same as in Experiment 2.

algae [2] = conditions: 0.5 g/L sodium acetate, within 6 hours, increased from 40%; pH 5; then decreased
Procedure: For the dry weight analysis, algal cells were collected by centrifuging at 300 g for 10 min. After washing with deionized water once, the precipitant of the sample was transferred to pre-weighed aluminum plates and dried to a constant weight in an oven at 70 degrees C.
For the lipid analysis, the algal cells were collected at 300 g for 10 min. Then the lipid content of the precipitant from the sample was analyzed with the same lipid extraction procedure, which is modified from the Folch method. The specific procedure was: • i. Add 8 mL of chloroform and methanol mixture (2:1, v/v) to the sample • ii. Add 0.1 mL of HCl (5 M) to the sample • iii. Gradually add deionized water to the sample until a second phase appears • iv. Vortex for 3 min at full power (Vortex-Genie 2) • v. Rotate 20 min at 40% output (Glas-Col) • vi. Centrifuge at 3620 g for 5 min • vii. Collect the lower chloroform phase into a pre-weighed drying vessel • viii. Add 5 mL of chloroform and methanol mixture (2:1, v/v) to the sample and repeat steps iv, v, vi and vii • ix. Air dry the vessel to a constant weight and measure the weight.
Algae were first cultured and then collected by centrifuge. After washing with deionized water once, algae were re-suspended into salts solution (Table 1). […] During the batch studies, the pH of all systems was maintained at 5 with 0.05 mol/L NaOH and 0.05 mol/L HCl. […]

With OCC(O)CO [glycerol] the lipid content (algae [1]) was “about 40 % of the dry weight”.
In the case of CC(=O)[O-].[Na+] [sodium acetate], the lipid content (algae [2]) is reported as 65 % of the dry weight.
